The test system of test [1] is K48-Ub, A549 cells. The test can be described thus: A549 K48 cell intensity (immunofluorescence, high content imaging). The settings on record: Homo sapiens, 6 hr compound incubation. Format: cell-based. The method, then:
Image-analysis is used to generate quantitative data from these assays that can be fit to a four-parameter sigmoid curve to derive IC50 values. Substrates of the ubiquitin-proteasome system, such as p53, are monitored after tumor cell lines are incubated with compounds for several hours. Accumulation of these proteins indicates an inhibition of proteasome-mediated degradation. Accumulation of lysine-48 chain linkage of poly-ubiquitin is also monitored by immunofluorescence as an indicator of ubiquitin-proteasome system inhibition. Both LC3 and SQSTM1 are mediators of autophagy. The localization and amounts of these proteins are monitored by immunofluorescence and report on the activity and inhibition of autophagy in response to p97 inhibition.
Day 1, Cell Plating to Establish Colonies of Cancer Cells • Cell Plating: • Seed cells ˜16 hrs prior to compound treatment • Plate 25 μL of A549 cells in every well of 384-well plate using multidrop. • Two (2) black plates for IF at 2500 cells/well • Let plate sit at room temp for 10-15 minutes prior to putting in incubator to allow cells to stick in middle of plate. • One (1) white plate for viability at 500 cells/well.

In test [2] the target is p97 (Homo sapiens, UniProt P55072). As to the kind of experiment: P97 ATPase biochemical assay (ADP Glo). The settings on record: 20 nM p97, 20 μM ATP, 37° C. 15 minutes. Here is the method: The ATPase assay is performed according the following protocol: Purified enzyme (20 nM p97), substrate (20 μM ATP) and a dose titration of compounds are mixed in buffer (50 mM TRIS pH 7.5, 20 mM MgCl2, 0.02% TX-100, 1 mM DTT, 0.2% (v/v) glycerol) and incubated at 37° C. for 15 minutes. The reaction is terminated and the level of product generated is measured using the ADP Glo Assay Kit (Promega, Madison Wis.). Plotting product generated versus compound concentration and using a four-parameter fit model generates an IC50 value for each compounds.
The p97 assay is an initial screening assay used to determine inhibitory activity of the fused pyrimidine compounds of the invention against the p97 complex. As discussed above, inhibition of activity of the p97 proteosome complex can enable apoptosis and cause elimination of neoplastic cells (cancer cells). The method follows that of Christianson in Nat.
Assay Buffer is a mixture of 50 mM TRIS pH 7.5, 20 mM MgCl2, 0.02% TX-100, 1 mM DTT and 0.2% (v/v) Glycerol. […] The identification kit is an ADP glo kit (Promega): stop buffer, detection reagent.
0.5 μL compound serial diluted in DMSO (Final Conc. 10%)
2 μL ATP (Final Conc.=20 uM, diluted in assay buffer)
2.5 μL p97 (Final Conc.=20 nM, diluted in assay buffer)
Incubate at 37 degC for 15 min.
Add 5 μL of stop buffer, incubate at RT for 40 min.
Add 10 μL of detection reagent, incubate at RT for 30 min.
Read luminescence on Envision plate reader.
Plot normalized luminescence data against log-transformed concentration values and fit to a sigmoidal curve to determine IC50 values (done in Collaborative Drug Discovery software).
(ADP-Glo turns the ADP formed in a reaction into a luminescent signal.)

Chain of p97 (P55072 whole entry, the tested form may be a part): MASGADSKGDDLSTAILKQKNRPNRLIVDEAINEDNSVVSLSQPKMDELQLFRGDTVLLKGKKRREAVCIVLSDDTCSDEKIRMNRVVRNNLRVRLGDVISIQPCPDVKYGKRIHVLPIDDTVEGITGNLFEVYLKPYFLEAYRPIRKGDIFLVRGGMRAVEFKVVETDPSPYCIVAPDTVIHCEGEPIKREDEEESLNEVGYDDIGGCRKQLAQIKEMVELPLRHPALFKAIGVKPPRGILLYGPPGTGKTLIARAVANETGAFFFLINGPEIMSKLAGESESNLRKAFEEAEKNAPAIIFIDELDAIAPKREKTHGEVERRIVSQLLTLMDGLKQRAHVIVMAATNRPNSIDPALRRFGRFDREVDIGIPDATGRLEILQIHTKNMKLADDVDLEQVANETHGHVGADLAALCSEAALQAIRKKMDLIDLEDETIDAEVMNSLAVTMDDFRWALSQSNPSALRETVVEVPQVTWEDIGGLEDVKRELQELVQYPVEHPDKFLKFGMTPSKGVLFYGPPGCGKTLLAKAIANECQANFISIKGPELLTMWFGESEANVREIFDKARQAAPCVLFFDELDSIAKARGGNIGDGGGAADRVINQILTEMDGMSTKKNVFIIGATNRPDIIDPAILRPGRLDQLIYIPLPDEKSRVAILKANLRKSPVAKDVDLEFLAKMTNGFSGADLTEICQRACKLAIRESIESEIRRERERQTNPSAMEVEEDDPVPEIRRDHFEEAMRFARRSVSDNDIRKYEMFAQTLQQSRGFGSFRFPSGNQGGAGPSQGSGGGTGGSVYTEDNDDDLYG

What is called IC50 is the concentration that inhibits the measured activity by half. For the molecule `COc1nc2ccccc2n1-c1nc2c(c(NCc3ccccc3)n1)CCCC2` [compound 9, N-benzyl-2-(2-methoxy-1H-1,3-benzodiazol-1-yl)-5,6,7,8-tetrahydroquinazolin-4-amine], the IC50 is below 10 µM in test [1] and below 0.1 µM in test [2].

For `Cc1cc2ccccc2n1-c1nc2c(c(NCc3ccccc3)n1)CCCC2` [compound 21, N-benzyl-2-(2-methyl-1H-indol-1-yl)-5,6,7,8-tetrahydroquinazolin-4-amine], the values for the IC50 in test [1] and in test [2] were below 10 µM and below 0.3 µM, respectively.

`Cc1cc2c(C#N)cccc2n1-c1nc2c(c(NCc3ccccc3)n1)CNCC2` [compound 42, 1-[4-(benzylamino)-5H,6H,7H,8H-pyrido[4,3-d]pyrimidin-2-yl]-2-methyl-1H-indole-4-carbonitrile]: the IC50 is below 10 µM in test [1] and below 0.1 µM in test [2].

Consider `Cc1cc2c(C(=O)NCCN(C)C)cccc2n1-c1nc2c(c(NCc3ccccc3)n1)COCC2` [compound 84], for which the IC50 was below 10 µM in test [1] and below 0.03 µM in test [2].

Turning to `Cc1cc2c(C(N)=O)cccc2n1-c1nc2c(c(NCc3ccccc3)n1)CCCC2` [compound 90, 1-[4-(benzylamino)-5,6,7,8-tetrahydroquinazolin-2-yl]-2-methyl-1H-indole-4-carboxamide], the IC50 in test [1] is below 10 µM; in test [2], below 0.03 µM.

For the molecule `COc1cc2c(C(N)=O)cccc2n1-c1nc2c(c(NCc3ccccc3)n1)CCCC2` [compound 91, 1-[4-(benzylamino)-5,6,7,8-tetrahydroquinazolin-2-yl]-2-methoxy-1H-indole-4-carboxamide], the IC50 in test [1] was below 10 µM; in test [2], below 0.03 µM.

For the molecule `Cc1nc2c(C(N)=O)cccc2n1-c1nc2c(c(NCc3ccccc3)n1)COCC2` [compound 93, 1-[4-(benzylamino)-5H,7H,8H-pyrano[4,3-d]pyrimidin-2-yl]-2-methyl-1H-1,3-benzodiazole-4-carboxamide], the IC50 in test [1] is below 10 µM; in test [2], below 0.1 µM.

With `COc1nc2c(C(N)=O)cccc2n1-c1nc2c(c(NCc3ccccc3)n1)COCC2` [compound 94, 1-[4-(benzylamino)-5H,7H,8H-pyrano[4,3-d]pyrimidin-2-yl]-2-methoxy-1H-1,3-benzodiazole-4-carboxamide], the values for the IC50 in test [1] and in test [2] were below 10 µM and below 0.03 µM, respectively.

For `NC(=O)c1cccc2c1cc(CO)n2-c1nc2c(c(NCc3ccccc3)n1)COCC2` [compound 96, 1-[4-(benzylamino)-5H,7H,8H-pyrano[4,3-d]pyrimidin-2-yl]-2-(hydroxymethyl)-1H-indole-4-carboxamide], the values for the IC50 in test [1] and in test [2] were below 10 µM and below 0.1 µM, respectively.

Regarding `CNC(=O)c1cccc2c1cc(C)n2-c1nc2c(c(NCc3ccccc3)n1)COCC2` [compound 97, 1-[4-(benzylamino)-5H,7H,8H-pyrano[4,3-d]pyrimidin-2-yl]-N,2-dimethyl-1H-indole-4-carboxamide], the results for the IC50 in test [1] and in test [2] were below 10 µM and below 0.1 µM, respectively.

On to `NCc1cc2c(C(N)=O)cccc2n1-c1nc2c(c(NCc3ccccc3)n1)CCCC2` [compound 101, 2-(aminomethyl)-1-[4-(benzylamino)-5,6,7,8-tetrahydroquinazolin-2-yl]-1H-indole-4-carboxamide], for which the IC50 in test [1] was below 10 µM; in test [2], below 0.03 µM.

As for `Cc1cc2c(C(=O)NCCN)cccc2n1-c1nc2c(c(NCc3ccccc3)n1)COCC2` [compound 105, N-(2-aminoethyl)-1-[4-(benzylamino)-5H,7H,8H-pyrano[4,3-d]pyrimidin-2-yl]-2-methyl-1H-indole-4-carboxamide], the IC50 in test [1] is below 10 µM; in test [2], below 1 µM.

Turning to `COc1nc2c(C#N)cccc2n1-c1nc2c(c(NCc3ccccc3)n1)COCC2` [compound 106, 1-[4-(benzylamino)-5H,7H,8H-pyrano[4,3-d]pyrimidin-2-yl]-2-methoxy-1H-1,3-benzodiazole-4-carbonitrile], the IC50 in test [1] was below 10 µM; in test [2] it was below 0.3 µM.

Turning to `Cc1cc2c(C(=O)O)cccc2n1-c1nc2c(c(NCc3ccccc3)n1)COCC2` [compound 107, 1-[4-(benzylamino)-5H,7H,8H-pyrano[4,3-d]pyrimidin-2-yl]-2-methyl-1H-indole-4-carboxylic acid], the IC50 in test [1] was below 10 µM; in test [2], below 0.03 µM.

With `Cc1cc2c(C(=O)O)cccc2n1-c1nc2c(c(NCc3ccccc3)n1)CCCC2` [compound 108, 1-[4-(benzylamino)-5,6,7,8-tetrahydroquinazolin-2-yl]-2-methyl-1H-indole-4-carboxylic acid], the IC50 in test [1] was below 10 µM; in test [2], below 0.03 µM.

Regarding `Cc1cc2c(S(N)(=O)=O)cccc2n1-c1nc2c(c(NCc3ccccc3)n1)CCCC2` [compound 110, 1-[4-(benzylamino)-5,6,7,8-tetrahydroquinazolin-2-yl]-2-methyl-1H-indole-4-sulfonamide], the IC50 in test [1] is below 10 µM; in test [2] it was below 0.1 µM.

`Cc1cc2c(C(=N)N)cccc2n1-c1nc2c(c(NCc3ccccc3)n1)COCC2` [compound 119]: the half-inhibitory concentration (IC50) in test [2] was below 1 µM.

For `Cc1cc2c(-c3nnn[nH]3)cccc2n1-c1nc2c(c(NCc3ccccc3)n1)COCC2` [compound 120, N-benzyl-2-[2-methyl-4-(1H-1,2,3,4-tetrazol-5-yl)-1H-indol-1-yl]-5H,7H,8H-pyrano[4,3-d]pyrimidin-4-amine], in test [2], the IC50 was below 0.03 µM.

As for `Cc1cc2c(-c3nnn[nH]3)cccc2n1-c1nc2c(c(NCc3ccccc3)n1)CCCC2` [compound 121, N-benzyl-2-[2-methyl-4-(1H-1,2,3,4-tetrazol-5-yl)-1H-indol-1-yl]-5,6,7,8-tetrahydroquinazolin-4-amine], the IC50 in test [2] is below 0.03 µM.

`Cc1cc2c(CN)cccc2n1-c1nc2c(c(NCc3ccccc3)n1)COCC2` [compound 125, 2-[4-(aminomethyl)-2-methyl-1H-indol-1-yl]-N-benzyl-5H,7H,8H-pyrano[4,3-d]pyrimidin-4-amine]: the IC50 in test [1] was below 10 µM.

In turn, `NC(=O)NCc1cc2c(C(N)=O)cccc2n1-c1nc2c(c(NCc3ccccc3)n1)CCCC2` [compound 127, 1-[4-(benzylamino)-5,6,7,8-tetrahydroquinazolin-2-yl]-2-[(carbamoylamino)methyl]-1H-indole-4-carboxamide] showed an IC50 in test [2] below 0.1 µM.

Molecule `CC(C)c1cc2c(C(N)=O)cccc2n1-c1nc2c(c(NCc3ccccc3)n1)COCC2` [compound 129, 1-[4-(benzylamino)-5H,7H,8H-pyrano[4,3-d]pyrimidin-2-yl]-2-(propan-2-yl)-1H-indole-4-carboxamide] showed an IC50 in test [2] below 1 µM.

`NC(=O)c1cccc2c1cc(C1CC1)n2-c1nc2c(c(NCc3ccccc3)n1)COCC2` [compound 131, 1-[4-(benzylamino)-5H,7H,8H-pyrano[4,3-d]pyrimidin-2-yl]-2-cyclopropyl-1H-indole-4-carboxamide] displayed an IC50 in test [2] below 0.03 µM.

`Cc1cc2c(C(=O)N(C)C)cccc2n1-c1nc2c(c(NCc3ccccc3)n1)CCCC2` [compound 133, 1-(4-(benzylamino)-5,6,7,8-tetrahydroquinazolin-2-yl)-N,N,2-trimethyl-1H-indole-4-carboxamide] returned a 50% inhibitory concentration (IC50) in test [2] below 1 µM.

With `CCOc1cc2c(C(N)=O)cccc2n1-c1nc2c(c(NCc3ccccc3)n1)CCCC2` [compound 135, 1-[4-(benzylamino)-5,6,7,8-tetrahydroquinazolin-2-yl]-2-ethoxy-1H-indole-4-carboxamide], in test [2], the half-maximal inhibitory concentration (IC50) was below 0.03 µM.

For the origin of these results see US9475824B2, “Fused pyrimidines as inhibitors of p97 complex” (Cleave Biosciences, Inc., priority 2012, dated 2016).
